Reference: patent publication US6437127B1, “Substituted cycloalkenes and their use as microbices, especially as fungicides” (Bayer Aktiengesellschaft, priority 1995, dated 2002)

Experiments:
[1] = system: Pseudocercosporella herpotrichoides; test: Pseudocercosporella herpotrichoides test (wheat)/protective; assay type: in vivo; conditions: protective, application rate 250 g/ha, evaluation 21 days after inoculation
Description: Pseudocercosporella Herpotrichoides Test (Wheat)/Protective Solvent: 10 parts by weight of N-methyl-pyrrolidone Emulsifier: 0.6 parts by weight of alkylaryl polyglycol ether To produce a suitable preparation of active compound, 1 part by weight of active compound is mixed with the stated amounts of solvent and emulsifier, and the concentrate is diluted with water to the desired concentration. To test for protective activity, young plants are sprayed with the preparation of active compound at the stated application rate. After the spray coating has dried on, the stem bases of the plants are inoculated with spores of Pseudocercosporella herpotrichoides. The plants are placed in a greenhouse at a temperature of about 10° C. and a relative atmospheric humidity of about 80%. Evaluation is carried out 21 days after the inoculation.

[2] = system: Erysiphe graminis. f. sp. tritici; test: Erysiphe test (wheat)/curative; assay type: in vivo; conditions: curative, sprayed 48 hours after inoculation, application rate 250 g/ha, evaluation 7 days after inoculation
Description: Erysiphe Test (Wheat)/Curative Solvent: 10 parts by weight of N-methyl-pyrrolidone Emulsifier: 0.6 parts by weight of alkylaryl polyglycol ether To produce a suitable preparation of active compound, 1 part by weight of active compound is mixed with the stated amounts of solvent and emulsifier, and the concentrate is diluted with water to the desired concentration. To test for curative activity, young plants are dusted with spores of Erysiphe graminis. f. sp. tritici. 48 hours after the inoculation, the plants are sprayed with the preparation of active compound at the stated application rate. The plants are placed in a greenhouse at a temperature of about 20° C. and a relative atmospheric humidity of about 80%, in order to promote the development of mildew […]. Evaluation is carried out 7 days after the inoculation.

melting point: 135 to 140 °C
Compound: CNC(=O)C(=NOC)C1=C(/C=C/c2ccccc2)CCC1 [compound (1)]
efficacy [1]: 90% | efficacy [2]: 75%
